What is called EC50 is the midpoint of the concentration-response curve. Usually GI50 stands for the concentration giving 50% growth inhibition.

The record followed here is patent US20080045514A1 (Cytovia, Inc., priority 2006, published 2008).

What all share (assay type): cell-based
In experiment [1] the test system is human hepatocellular carcinoma cell line SNU398. Put plainly: Caspase cascade activation (EC50), SNU398. The conditions noted are these: SNU398 cells, caspase cascade activation, read-out: caspase potency (EC50) SNU398. In outline: (§1)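 Cells at 0.65×10^6 cells/mL exposed to compound at 0.016 to 10 μM final (1% DMSO) for 48 h at 37° C, 5% CO2. Caspase activity then read with 14 μM Ac-DEVD-R110 fluorogenic substrate in lysolecithin/DTT/PIPES pH 7.2 buffer at ex 485/em 530 nm after 3 h at room temperature. EC50 fitted sigmoidally from net RFU ratio to control.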

The subject of experiment [2] is human Burkitt's lymphoma cell line Namalwa. Put plainly: Inhibition of cell proliferation (GI50), Namalwa. The settings on record: Namalwa cells, 48 h, CellTiter-Glo. The method, then:
(§2) Human breast cancer cell lines T-47D, human hepatocellular carcinoma cell line SNU398, human colon carcinoma cell line HCT116, human lung cancer cell line H1299, human leukemia cell line K562, human lymphoma cell line Raji, human B cell lymphoblastoid cell line Ramos, and human Burkitt's lymphoma cell line Namalwa were grown and harvested as in Example 100. An aliquot of […] of cells (4.4×10^4 cells/mL) was added to a well of a 96-well microtiter plate containing 5 μL of a 10% DMSO in RPMI-1640 media solution containing 10 nM to 100 μM of 3-(2-chlorophenyl)-6-(3,4-methylenedioxyphenyl)-7H-[1,2,4]triazolo[3,4-b][1,3,4]thiadiazine (1 nM to 10 μM final). An aliquot of 45 μL of cells was added to a well of a 96-well microtiter plate containing 5 μL of a 10% DMSO in RPMI-1640 media solution without compound as the control sample for maximal cell proliferation (LMax). The samples were mixed by agitation and then incubated at 37° C. for 48 h in a 5% CO2-95% humidity incubator. After incubation, the samples were removed from the incubator and 25 μL of CellTiter-Glo™ reagent (Promega) was added. The samples were mixed by agitation and incubated at room temperature for 10-15 min. Plates were then read using a luminescent plate reader (Model SPECTRAfluor Plus, Tecan) to give Ltest values.
(§3) The samples were mixed by agitation and then incubated at 37° C. for 0.5 h in a 5% CO2-95% humidity incubator. After incubation, the samples were removed from the incubator and 25 μL of CellTiter-Glo™ reagent (Promega) was added. The samples were mixed by agitation and incubated at […] 10-15 min at room temperature in a 5% CO2-95% humidity incubator. Fluorescence was read as above, (LStart) defining luminescence for initial cell number used as baseline in GI50 determinations.
(§4) Calculation: GI50 (dose for 50% inhibition of cell proliferation) is the concentration where [(Ltest−LStart)/(LMax−LStart)]=0.5.
A general note: Cellular ATP, detected with luciferase, serves as a proxy for viable cell number.

Experiment [3] concerns human breast cancer cell line T-47D. Put plainly: Caspase cascade activation (EC50), T-47D. The conditions noted are these: T47D cells, caspase cascade activation, read-out: caspase potency (EC50) T47D. The procedure, abridged: as §1
For experiment [4], the system named is human lymphoma cell line Raji. Briefly: Caspase cascade activation (EC50), Raji. The settings on record: RAJI cells, read-out: caspase potency (EC50) RAJI. In outline:
as §1

The subject of experiment [5] is human colon carcinoma cell line HCT116. Briefly: Inhibition of cell proliferation (GI50), HCT116. The conditions noted are these: HCT 116 cells, 48 h, CellTiter-Glo. How it is done: as §2, §3, §4
The test system of experiment [6] is human lymphoma cell line Raji. Briefly: Inhibition of cell proliferation (GI50), Raji. The settings on record: Raji cells, 48 h, CellTiter-Glo. How it is done: as §2, §3, §4
Experiment [7] relates to human leukemia cell line K562. Put plainly: Inhibition of cell proliferation (GI50), K562. The settings on record: K562 cells, 48 h, CellTiter-Glo. The method, then: as §2, §3, §4
Experiment [8] has as its system human Burkitt's lymphoma cell line Namalwa. Put plainly: Caspase cascade activation (EC50), Namalwa. The settings on record: Namalwa cells, caspase cascade activation, read-out: caspase potency (EC50) Namalwa. The procedure, abridged: as §1
The subject of experiment [9] is human B cell lymphoblastoid cell line Ramos. Briefly: Inhibition of cell proliferation (GI50), Ramos. The settings on record: Ramos cells, 48 h, CellTiter-Glo. How it is done:
as §2, §3, §4

Experiment [10] concerns human colon carcinoma cell line HCT116. Put plainly: Caspase cascade activation (EC50), HCT116. The conditions noted are these: HCT116 cells, caspase cascade activation, read-out: caspase potency (EC50) HCT116. In outline:
as §1

Experiment [11] deals with human B cell lymphoblastoid cell line Ramos. Briefly: Caspase cascade activation (EC50), Ramos. The settings on record: RAMOS cells, read-out: caspase potency (EC50) RAMOS. The procedure, abridged:
as §1

Setting [12] is: Homo sapiens, Burkitts lymphoma cell.

Where a name gives a salt, the structure may show the parent alone. Read-outs that look alike come from different tables or passages of the source.

In the case of `COc1ccc(C2=Nn3c(nnc3-c3n[nH]c4c3CCC4)SC2)cc1` [Example V2], the 50% effective concentration (EC50) in experiment [1] (Homo sapiens, SNU-398) is 195 nM; in experiment [3] (Homo sapiens), 312 nM; in experiment [4] (Homo sapiens) it was 444 nM; in experiment [8] (setting [12]), 250 nM; in experiment [10] (Homo sapiens, HCT-116), 268 nM; in [11] (Homo sapiens), 256 nM. The GI50 in experiment [2] (setting [12]) was found to be 975 nM; in experiment [5] (Homo sapiens) it was 1130 nM; in [6] (Homo sapiens), 1260 nM; in experiment [7] (Homo sapiens) it was 400 nM; in experiment [9] (Homo sapiens) it was 346 nM.

Consider `COc1ccc(C2=Nn3c(nnc3-c3cccc(Br)c3)SC2)cc1` [Example I2, 3-(3-Bromophenyl)-6-(4-methoxyphenyl)-7H-[1,2,4]triazolo[3,4-b][1,3,4]thiadiazine], for which the EC50 stood at 329 nM in experiment [1] (Homo sapiens, SNU-398); 905 nM in experiment [3] (Homo sapiens); 523 nM in experiment [4] (Homo sapiens); 629 nM in [8] (setting [12]); 612 nM in [10] (Homo sapiens, HCT-116); 379 nM in [11] (Homo sapiens). The 50% growth inhibitory concentration (GI50) in [2] (setting [12]) is 400 nM; in experiment [5] (Homo sapiens), 376 nM; in experiment [6] (Homo sapiens), 176 nM; in experiment [7] (Homo sapiens), 96 nM; in [9] (Homo sapiens), 119 nM.

For the molecule `COc1cc(-c2nnc3n2N=C(c2ccc(C)cc2)CS3)cc(OC)c1O` [Example 13, 3-(3,5-Dimethoxy-4-hydroxyphenyl)-6-(4-methylphenyl)-7H-[1,2,4]triazolo[3,4-b][1,3,4]thiadiazine hydrobromide], the 50% effective concentration (EC50) in [1] (Homo sapiens, SNU-398) was determined as 101 nM; in [3] (Homo sapiens), 625 nM; in experiment [4] (Homo sapiens), 52 nM; in experiment [8] (setting [12]) it was 73 nM; in experiment [10] (Homo sapiens, HCT-116) it was 189 nM; in [11] (Homo sapiens), 69 nM. In addition, the GI50 amounted to 18 nM in [2] (setting [12]); 165 nM in experiment [5] (Homo sapiens); 97 nM in [6] (Homo sapiens); 51 nM in [7] (Homo sapiens); 50 nM in experiment [9] (Homo sapiens).

With `COc1ccccc1-c1nnc2n1N=C(c1ccc(N3CCCC3)cc1)CS2` [Example 24, 3-(2-Methoxyphenyl)-6-(4-(pyrrolidin-1-yl)phenyl)-7H-[1,2,4]triazolo[3,4-b][1,3,4]thiadiazine], the EC50 in experiment [1] (Homo sapiens, SNU-398) was found to be 41 nM; in experiment [3] (Homo sapiens) it was 91 nM; in experiment [4] (Homo sapiens) it was 107 nM; in [8] (setting [12]), 35 nM; in experiment [10] (Homo sapiens, HCT-116), 62 nM; in [11] (Homo sapiens), 62 nM. The 50% growth inhibitory concentration (GI50) in experiment [2] (setting [12]) was found to be 64 nM; in experiment [5] (Homo sapiens), 41 nM; in experiment [6] (Homo sapiens), 15 nM; in [7] (Homo sapiens), 17 nM; in experiment [9] (Homo sapiens), 16 nM.

With `COc1ccc(C2=Nn3c(nnc3-c3ccccc3F)SC2)cc1` [Example L2, 3-(2-Fluorophenyl)-6-(4-methoxyphenyl)-7H-[1,2,4]triazolo[3,4-b][1,3,4]thiadiazine], the EC50 in experiment [1] (Homo sapiens, SNU-398) was found to be 55 nM; in experiment [3] (Homo sapiens), 553 nM; in experiment [4] (Homo sapiens), 85 nM; in experiment [8] (setting [12]) it was 76 nM; in experiment [10] (Homo sapiens, HCT-116), 122 nM; in experiment [11] (Homo sapiens), 60 nM. The GI50 in experiment [2] (setting [12]) is 68 nM; in [5] (Homo sapiens), 142 nM; in experiment [6] (Homo sapiens) it was 247 nM; in experiment [7] (Homo sapiens), 34 nM; in experiment [9] (Homo sapiens), 20 nM.

As to `COc1ccc(-c2nnc3n2N=C(c2ccc(N(C)C)cc2)CS3)cc1OC` [Example 30, 6-(4-Dimethylminophenyl)-3-(3,4-dimethoxyphenyl)-7H-[1,2,4]triazolo[3,4-b][1,3,4]thiadiazine], the EC50 in experiment [1] amounted to 119 nM; in experiment [3], 360 nM; in experiment [4], 64 nM; in [8] it was 55 nM; in experiment [10], 221 nM; in experiment [11], 57 nM. The concentration for 50% growth inhibition (GI50) in experiment [2] was 102 nM; in experiment [5], 126 nM; in experiment [6], 157 nM; in experiment [7], 50 nM; in experiment [9], 100 nM.

For `CCN(CC)c1ccc(C2=Nn3c(nnc3-c3cc(OC)cc(OC)c3)SC2)cc1` [Example 26, 6-(4-Diethylaminophenyl)-3-(3,5-dimethoxyphenyl)-7H-[1,2,4]triazolo[3,4-b][1,3,4]thiadiazine], the EC50 was found to be 114 nM in experiment [1] (Homo sapiens, SNU-398); 297 nM in experiment [3] (Homo sapiens); 154 nM in [4] (Homo sapiens); 106 nM in experiment [8] (setting [12]); 280 nM in [10] (Homo sapiens, HCT-116); 73 nM in [11] (Homo sapiens). The GI50 in experiment [2] (setting [12]) amounted to 16 nM; in experiment [5] (Homo sapiens), 20 nM; in [6] (Homo sapiens), 17 nM; in experiment [7] (Homo sapiens) it was 20 nM; in [9] (Homo sapiens) it was 20 nM.

On to `COc1ccc(C2=Nn3c(nnc3-c3ccccc3Br)SC2)cc1` [Example D3], for which the EC50 in experiment [1] (Homo sapiens, SNU-398) amounted to 61 nM; in [3] (Homo sapiens), 332 nM; in experiment [4] (Homo sapiens), 115 nM; in experiment [8] (setting [12]) it was 54 nM; in experiment [10] (Homo sapiens, HCT-116), 143 nM; in experiment [11] (Homo sapiens), 76 nM. The GI50 was 33 nM in experiment [2] (setting [12]); 100 nM in experiment [5] (Homo sapiens); 85 nM in [6] (Homo sapiens); 44 nM in experiment [7] (Homo sapiens); 49 nM in experiment [9] (Homo sapiens).

Turning to `COc1ccc(C2=Nn3c(nnc3-c3cccc(C)c3)SC2)cc1` [Example Q2], the EC50 was 61 nM in experiment [1] (Homo sapiens, SNU-398); 503 nM in [3] (Homo sapiens); 121 nM in [4] (Homo sapiens); 80 nM in experiment [8] (setting [12]); 100 nM in experiment [10] (Homo sapiens, HCT-116); 65 nM in [11] (Homo sapiens). The GI50 in [2] (setting [12]) is 112 nM; in [5] (Homo sapiens), 359 nM; in experiment [6] (Homo sapiens), 587 nM; in experiment [7] (Homo sapiens) it was 37 nM; in experiment [9] (Homo sapiens), 33 nM.

Consider `COc1ccc(C2=Nn3c(nnc3-c3cccc(F)c3)SC2)cc1` [Example C3], for which the EC50 in experiment [1] (Homo sapiens, SNU-398) turned out to be 126 nM; in experiment [3] (Homo sapiens), 1710 nM; in [4] (Homo sapiens), 247 nM; in [8] (setting [12]), 132 nM; in [10] (Homo sapiens, HCT-116), 424 nM; in [11] (Homo sapiens) it was 152 nM. In addition, the GI50 in experiment [2] (setting [12]) is 112 nM; in [5] (Homo sapiens) it was 852 nM; in [6] (Homo sapiens) it was 130 nM; in experiment [7] (Homo sapiens), 63 nM; in [9] (Homo sapiens), 100 nM.

As for `COc1cc(OC)cc(-c2nnc3n2N=C(c2ccc(C)cc2)CS3)c1` [Example 12, 3-(3,5-Dimethoxyphenyl)-6-(4-methylphenyl)-7H-[1,2,4]triazolo[3,4-b][1,3,4]thiadiazine hydrochloride], the concentration for a half-maximal effect (EC50) in experiment [1] (Homo sapiens, SNU-398) stood at 61 nM; in experiment [3] (Homo sapiens), 760 nM; in [4] (Homo sapiens), 55 nM; in experiment [8] (setting [12]) it was 20 nM; in experiment [10] (Homo sapiens, HCT-116), 71 nM; in experiment [11] (Homo sapiens), 20 nM. Moreover, the GI50 came out at 6 nM in experiment [2] (setting [12]); 50 nM in experiment [5] (Homo sapiens); 15 nM in [6] (Homo sapiens); 7 nM in experiment [7] (Homo sapiens); 5 nM in experiment [9] (Homo sapiens).
